Data reported in patent publication US20220332799A1, “HERV INHIBITORS FOR USE IN TREATING TAUOPATHIES” (Deutsches Zentrum Für Neurodegenerative Erkrankungen E.V. …, priority 2019, published 2022).
“Also recorded” adds a separate entry of the source. Where two headings read alike, the source gives them in different places.

Key:
N2a NM-GFP^sol cells = type: cell-based, mouse; settings: for percentage of recipient cells with NM-GFP aggregates: compounds added to cocultures 1 h after co-seeding, three concentrations, 12 h
MuERV env and gag mRNA = assay: qRT-PCR of MuERV env and gag transcripts in donor clone s2E; type: cell-based, mouse; settings: for total env and gag mRNA: s2E P21 donors, L-methionine 80 mM, Betaine 80 mM, Choline chloride 20 mM, 6 days, vs medium control; for expression of total env and gag mRNA: s2E P1 donors, Aza 200 nM or Dec 100 nM, then 5 days without drug, vs DMSO
Method: To inhibit methyltransferases, s2E P1 donor cells were treated for three days with methyltransferase inhibitors 5-Azacytidine (Aza) 200 nM, Decitabine (Dec) 100 nM or DMSO as solvent control. Subsequently, the cells were cultured in the absence of the drugs for 5 days. Pre-treated donor cells were subsequently cocultured with recipient cells as described above to monitor aggregate induction efficiency in recipient N2a NM-GFP^sol cells. Cell lysates of donor cells were also analyzed for MuERV Env and Gag expression levels by western blot. To increase DNA methylation, the s2E donor clone (P21) was treated with methyl group donors L-methionine (L-M) 80 mM, Betaine (B) 80 mM, Choline chloride (CC) 20 mM or medium control for 6 days. MuERV Env and Gag protein levels were analyzed by western blot. Subsequently, cells were cocultured with recipient cells for 16 h. The percentage of aggregate containing recipient cells was compared to the percentage of aggregate bearing recipients cocultured with solvent-treated donors. […]
Total RNA from cell pellets or brain samples was isolated using the RNeasy Mini Kit or RNeasy Lipid Tissue Mini Kit (Qiagen). RNA concentration and quality were determined using the Agilent 2100 Bioanalyzer System. For a 20 μl reaction, 1 μg RNAs were reversely transcribed to cDNA using the iScript™ cDNA Synthesis Kit (Bio-Rad). For a 20 μl qRT-PCR reaction, 2 μl of synthesized cDNA was used as template. For qRT-PCR of murine env AA037244.2 and gag AID54952, custom designed TaqMan probes were used (Thermo Fisher Scientific). Pre-designed TaqMan probes by the company for murine pan-env, xpr1, mcat-1 and gapdh as housekeeping control and TaqMan™ Gene Expression Master Mix (Thermo Fisher Scientific) were used. qRT-PCR using TaqMan probes was performed as described in the manufacturer's instruction. For qRT-PCR analyses of HERV family members, primers were designed using the corresponding cDNA sequences (cf. SEQ ID NOs. 73-92). PowerUP SYBR™ Green Master Mix (Thermo Fisher Scientific) was mixed with different cDNAs and corresponding primers as indicated in the instruction. The fast cycling mode was used for all primers.

MuERV Env and Gag = type: cell-based, mouse
Method: To inhibit methyltransferases, s2E P1 donor cells were treated for three days with methyltransferase inhibitors 5-Azacytidine (Aza) 200 nM, Decitabine (Dec) 100 nM or DMSO as solvent control. Subsequently, the cells were cultured in the absence of the drugs for 5 days. Pre-treated donor cells were subsequently cocultured with recipient cells as described above to monitor aggregate induction efficiency in recipient N2a NM-GFP^sol cells. Cell lysates of donor cells were also analyzed for MuERV Env and Gag expression levels by western blot. To increase DNA methylation, the s2E donor clone (P21) was treated with methyl group donors L-methionine (L-M) 80 mM, Betaine (B) 80 mM, Choline chloride (CC) 20 mM or medium control for 6 days. MuERV Env and Gag protein levels were analyzed by western blot. Subsequently, cells were cocultured with recipient cells for 16 h. The percentage of aggregate containing recipient cells was compared to the percentage of aggregate bearing recipients cocultured with solvent-treated donors.
Pre-designed siRNAs against murine XPR1 and mCat-1 genes were used to knock-down genes coding for putative receptors. For transfection, 2-4×10^5 cells/well were seeded on 6 well plates. The next day, 30 nM siRNA or plasmid DNA was transfected using Lipofectamine RNAiMAX or Lipofectamine2000 transfection reagent, respectively, according to the manufacturer's instructions (Thermo Fisher Scientific). After 2 days, transfected cells were harvested for aggregate induction assays and qRT-PCR, western blot analysis.
For Western blot analysis, protein concentrations were measured using the Quick Start™ Bradford Protein assay (Bio-Rad). Proteins were separated on NuPAGE®Novex® 4-12 Bis-Tris Protein Gels (Life Technologies) followed by transfer onto a PVDF membrane (GE Healthcare). Western blot analysis was performed using rat hybridoma anti-MuERV Env mAb83A25; anti-xenotropic MuLV virus antibody ABIN457298 for detecting both Env and Gag (antibodies-online); mouse anti-MuERV Gag ab100970 (Abcam); mouse anti-Alix (1:1000; BD Bioscience); rat anti-HA 3F10 (1:1000; Roche); mouse anti-GAPDH 6C5 (1:5000; Abcam); mouse anti-Hsc/Hsp70 N27F3-4 (1:1000; ENZO); mouse anti-VSV-G A5977 (Sigma); rabbit anti-Tau ab64193 (Abcam); mouse anti-HERV K Env HERM-1811-5 (Amsbio); mouse anti-HERV K Gag HERM-1841-5 (Amsbio). The membrane was incubated with Pierce™ ECL Western Blotting Substrate (Thermo Fisher Scientific) according to the manufacturer's recommendations.

HERV-K protease = molecular target: T1, HERV-K protease (Homo sapiens, UniProt P10265); settings: stated as shown previously; cited from earlier work
T1 sequence (P10265 1-156): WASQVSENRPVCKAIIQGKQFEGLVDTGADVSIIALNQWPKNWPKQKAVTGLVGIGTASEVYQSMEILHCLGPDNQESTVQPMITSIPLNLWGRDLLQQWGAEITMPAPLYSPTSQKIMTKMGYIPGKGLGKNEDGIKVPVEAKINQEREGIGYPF

HEK Tau-FRsol cells [1] = assay: Tau-FR aggregate induction by coculture with A375 Tau-GFPAD donor cells; type: cell-based, human; settings: donors 10 μM for 3 d; coculture 3 d in presence of 10 μM; vs DMSO
Method: (§1) Melanoma cell line A375 (Oricchio E, Sciamanna I, Beraldi R, Tolstonog G V, Schumann G G, Spadafora C. 2007. Distinct roles for LINE-1 and HERV-K retroelements in cell proliferation, differentiation and tumor progression. Oncogene 26:4226-4233) was engineered to stably express Tau-GFP and subsequently exposed to AD brain homogenate to induce Tau aggregation. A clone stably propagating Tau-GFPagg was isolated and used for experiments. Donor A375 Tau-GFPAD cells were treated with 10 μM inhibitor Lopinavir to repress HERV-K protease for 3 d before EV were harvested. Donors or donor EV were then cultured with recipient HEK Tau-FRsol cells in the presence of 10 μM Lopinavir or DMSO for 3 d. • b. Quantitative analysis of recipient cells with Tau-FRagg upon coculture with donors. Statistical analysis was performed with unpaired Student's t-test (n=6). • c. Quantitative analysis of recipient cells with induced Tau-FRagg following exposure to donor-derived EV. Statistical analysis was performed with unpaired Student's t-test (n=3). […]
(§2) To inhibit methyltransferase, MCF-7 Tau-GFPAD cells were treated with 2 μM Aza or DMSO for 4 d. […] Afterwards, the total numbers of viable cells and the viability upon drug treatments were determined using the Vi-VELLTMXR Cell Viability Analyzer (Beckman Coulter). […]

HEK Tau-FRsol cells [2] = assay: Tau-FR aggregate induction by EV from A375 Tau-GFPAD donor cells; type: cell-based, human; settings: EV from donors treated with 10 μM for 3 d; 3 d on recipients in presence of 10 μM; vs DMSO
Method: as §1, §2

Structure (SMILES): C[N+](C)(C)CCO.[Cl-] [Choline chloride]
- NM-GFP aggregate induction when pretreated donors were cocultured with recipient cells (N2a NM-GFP^sol cells): decreased NM-GFP aggregate induction
- total env and gag mRNA (MuERV env and gag mRNA): transcripts decreased
- total env and gag mRNA (MuERV env and gag mRNA; listed as choline chloride): decreased total env and gag mRNA
- MuERV proteins (MuERV Env and Gag): decreased

Structure (SMILES): COC(=O)N[C@H](C(=O)N[C@@H](Cc1ccccc1)[C@@H](O)CN(Cc1ccc(-c2ccccn2)cc1)NC(=O)[C@@H](NC(=O)OC)C(C)(C)C)C(C)(C)C [atazanavir]
- percentage of recipient cells with NM-GFP aggregates (N2a NM-GFP^sol cells; vs DMSO): reduced the percentage of recipient cells with NM-GFP aggregates
- percentage of recipient cells with NM-GFP aggregates (N2a NM-GFP^sol cells; vs DMSO, listed as Atazenavir): reduce aggregate induction

Structure (SMILES): C[N+](C)(C)CC(=O)O [Betaine]
- NM-GFP aggregate induction when pretreated donors were cocultured with recipient cells (N2a NM-GFP^sol cells; s2E P21 donors pretreated 6 days, coculture 16 h): decreased NM-GFP aggregate induction
- total env and gag mRNA (MuERV env and gag mRNA): transcripts decreased
- total env and gag mRNA (MuERV env and gag mRNA; listed as betaine): decreased total env and gag mRNA
- MuERV proteins (MuERV Env and Gag; s2E P21 donors, L-methionine 80 mM, Betaine 80 mM, Choline chloride 20 mM, 6 days, vs medium control): decreased

Structure (SMILES): Nc1ncn([C@@H]2O[C@H](CO)[C@@H](O)[C@H]2O)c(=O)n1 [5-Azacytidine]
- NM aggregate induction in recipient cells cocultured with pretreated donors (N2a NM-GFP^sol cells; s2E P1 donors pretreated, Aza 200 nM or Dec 100 nM, vs DMSO): significantly increased NM aggregate induction in recipient cells
- expression of total env and gag mRNA (MuERV env and gag mRNA): increased expression of total env and gag mRNA
- expression of total env and gag mRNA (MuERV env and gag mRNA; listed as 5-azacytidine): Increased expression of MuERV env (f), gag (h) and pan-env (g) transcripts
- expression of MuERV proteins (MuERV Env and Gag; s2E P1 donors, Aza 200 nM or Dec 100 nM, then 5 days without drug, vs DMSO): increased expression

Structure (SMILES): CSCC[C@H](N)C(=O)O [L-methionine]
- NM-GFP aggregate induction when pretreated donors were cocultured with recipient cells (N2a NM-GFP^sol cells): decreased NM-GFP aggregate induction
- total env and gag mRNA (MuERV env and gag mRNA): transcripts decreased
- total env and gag mRNA (MuERV env and gag mRNA; listed as 1-methionine): decreased total env and gag mRNA
- MuERV proteins (MuERV Env and Gag): decreased

Structure (SMILES): Cc1cccc(C)c1OCC(=O)N[C@@H](Cc1ccccc1)[C@@H](O)C[C@H](Cc1ccccc1)NC(=O)[C@H](C(C)C)N1CCCNC1=O [Lopinavir]
- inhibition of HERV-K protease required for HERV protein maturation (HERV-K protease): inhibit HERV-K protease
- recipient cells with Tau-FRagg upon coculture with donors (HEK Tau-FRsol cells [1]): significant reduction of recipient cells with aggregates; also recorded: reduces intercellular Tau aggregate spreading; also recorded: reduces intercellular protein aggregate spreading
- Tau aggregate inducing activity of donor-derived EV in recipients (HEK Tau-FRsol cells [2]): reduced Tau aggregate inducing activity in recipients
